Experimental findings from patent US10533010B2, “Substituted indole Mcl-1 inhibitors” (Vanderbilt University, priority 2014, dated 2020) are described below.

The target of the first experiment is recombinant Mcl-1 (residues 172-327) (Homo sapiens (Human), UniProt Q07820). As to the kind of experiment: Fluorescence polarization anisotropy competition assay (FITC-Bak or FITC-Bim BH3 peptide) with Mcl-1.
recombinant Mcl-1 (residues 172-327), sequence (Q07820 172-327): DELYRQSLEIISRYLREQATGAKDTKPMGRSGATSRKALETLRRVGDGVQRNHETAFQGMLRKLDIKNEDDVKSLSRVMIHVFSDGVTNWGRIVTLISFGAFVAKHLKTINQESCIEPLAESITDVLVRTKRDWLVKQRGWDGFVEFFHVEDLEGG
Conditions: not given
The class given is binding. In general terms: Fluorescence polarisation rises when a labelled molecule tumbles more slowly, as on binding a larger partner.
Usually Ki stands for the equilibrium dissociation constant of an inhibitor or competing ligand from its target. `Cc1cc(OCCCc2c3n(c4c(-c5c(C)nn(C)c5C)cc(Cl)cc24)CCCN(c2cc(C(=O)O)c4ccn(C)c4c2)C3=O)cc(C)c1Cl` [I-244, 6-(9-chloro-11-(3-(4-chloro-3,5-dimethylphenoxy)propyl)-1-oxo-7-(1,3,5-trimethyl-1H-pyrazol-4-yl)-4,5-dihydro-1H-[1,4]diazepino[1,2-a]indol-2(3H)-yl)-1-methyl-1H-indole-4-carboxylic acid]: the Ki fell in the range of 101 to 299 nM.

Still in this experiment, the particulars now being: Table 2; Ki bins given in nM; FITC-Bak or FITC-Bim peptide competition; Ki converted from IC50; read-out: Ki for Inhibition of Mcl-1.
As for `Cc1cc(OCCCc2c(C(=O)Nc3ccc(C(=O)O)c(N(C)CCN(C)C)c3)[nH]c3c(-c4c(C)nn(C)c4C)c(Cl)ccc23)cc(C)c1Cl` [I-92, 4-(6-chloro-3-(3-(4-chloro-3,5-dimethylphenoxy)propyl)-7-(1,3,5-trimethyl-1H-pyrazol-4-yl)-1H-indole-2-carboxamido)-2-((2-(dimethylamino)ethyl)(methyl)amino)benzoic acid], the Ki is under 50 nM. Consider `Cc1cc(OCCCc2c(C(=O)N[C@H]3CCCC[C@H]3C(=O)O)[nH]c3c(-c4c(C)nn(C)c4C)cccc23)cc(C)c1Cl` [I-316, (1R,2S)-2-(3-(3-(4-chloro-3,5-dimethylphenoxy)propyl)-7-(1,3,5-trimethyl-1H-pyrazol-4-yl)-1H-indole-2-carboxamido)cyclohexane-1-carboxylic acid], for which the Ki was under 50 nM.

For the compound `Cc1cnccc1-c1cc(C(=O)O)cc(N2CCCn3c(c(CCCOc4cc(C)c(Cl)c(C)c4)c4ccc(Cl)c(-c5c(C)nn(C)c5C)c43)C2=O)c1` [I-233, 3-(8-chloro-11-(3-(4-chloro-3,5-dimethylphenoxy)propyl)-1-oxo-7-(1,3,5-trimethyl-1H-pyrazol-4-yl)-4,5-dihydro-1H-[1,4]diazepino[1,2-a]indol-2(3H)-yl)-5-(3-methylpyridin-4-yl)benzoic acid], the Ki is under 50 nM. Same read-out and setting: as for `Cc1cc(OCCCc2c3n(c4c(-c5c(C)nn(C)c5C)c(Cl)ccc24)C[C@@H](C)N(c2cccc(C(=O)O)c2)C3=O)cc(C)c1Cl` [I-157, (R)-3-(7-chloro-10-(3-(4-chloro-3,5-dimethylphenoxy)propyl)-3-methyl-1-oxo-6-(1,3,5-trimethyl-1H-pyrazol-4-yl)-3,4-dihydropyrazino[1,2-a]indol-2(1H)-yl)benzoic acid], the figure is under 50 nM; as for `Cc1cc(OCCCc2c(C(=O)NCc3ccnc(N4CCc5ccccc5C4)c3)[nH]c3c(-c4c(C)nn(C)c4C)cccc23)cc(C)c1Cl` [I-263, 3-(3-(4-chloro-3,5-dimethylphenoxy)propyl)-N-((2-(3,4-dihydroisoquinolin-2(1H)-yl)pyridin-4-yl)methyl)-7-(1,3,5-trimethyl-1H-pyrazol-4-yl)-1H-indole-2-carboxamide], 301 to 500 nM; as for `Cc1cc(OCCCc2c3n(c4c(-c5c(C)nn(C)c5C)c(Cl)ccc24)[C@@H](C)CN(c2ccc(C(=O)O)c4ncccc24)C3=O)cc(C)c1Cl` [I-168, (S)-5-(7-chloro-10-(3-(4-chloro-3,5-dimethylphenoxy)propyl)-4-methyl-1-oxo-6-(1,3,5-trimethyl-1H-pyrazol-4-yl)-3,4-dihydropyrazino[1,2-a]indol-2(1H)-yl)quinoline-8-carboxylic acid], under 50 nM. Same read-out and setting: as for `Cc1cc(OCCCc2c3n(c4c(-c5c(C)nn(C)c5C)c(Cl)ccc24)CCCN(Cc2cc(Br)cc(C(=O)O)c2)C3=O)cc(C)c1Cl` [I-299, 3-bromo-5-((8-chloro-11-(3-(4-chloro-3,5-dimethylphenoxy)propyl)-1-oxo-7-(1,3,5-trimethyl-1H-pyrazol-4-yl)-4,5-dihydro-1H-[1,4]diazepino[1,2-a]indol-2(3H)-yl)methyl)benzoic acid], the figure is under 50 nM; as for `CCOC(=O)c1ccc(CNC(=O)c2c(CCCOc3cc(C)c(Cl)c(C)c3)c3cccc(-c4c(C)nn(C)c4C)c3n2C)o1` [I-65, ethyl 5-((3-(3-(4-chloro-3,5-dimethylphenoxy)propyl)-1-methyl-7-(1,3,5-trimethyl-1H-pyrazol-4-yl)-1H-indole-2-carboxamido)methyl)furan-2-carboxylate], 301 to 500 nM. Turning to `Cc1cc(OCCCc2c3n(c4c(-c5c(C)nn(C)c5C)c(Cl)ccc24)[C@@H](C)CN(c2cc(C(=O)O)c4ccn(C)c4c2)C3=O)cc(C)c1Cl` [I-169, (S)-6-(7-chloro-10-(3-(4-chloro-3,5-dimethylphenoxy)propyl)-4-methyl-1-oxo-6-(1,3,5-trimethyl-1H-pyrazol-4-yl)-3,4-dihydropyrazino[1,2-a]indol-2(1H)-yl)-1-methyl-1H-indole-4-carboxylic acid], the Ki was under 50 nM.

For `Cc1cc(OCCCc2c3n(c4c(-c5c(C)nn(C)c5C)cccc24)CCCN(Cc2cc(C(=O)O)cc([N+](=O)[O-])c2)C3=O)cc(C)c1Cl` [I-86, 3-((11-(3-(4-chloro-3,5-dimethylphenoxy)propyl)-1-oxo-7-(1,3,5-trimethyl-1H-pyrazol-4-yl)-4,5-dihydro-1H-[1,4]diazepino[1,2-a]indol-2(3H)-yl)methyl)-5-nitrobenzoic acid], the Ki was under 50 nM. On the same count and under the same terms, in the case of `Cc1cc(OCCCc2c(C(=O)NCCS(=O)(=O)NC(=O)C34CC5CC(CC(C5)C3)C4)[nH]c3ccccc23)cc(C)c1Cl` [I-55, N-(2-(N-((3r,5r,7r)-adamantane-1-carbonyl)sulfamoyl)ethyl)-3-(3-(4-chloro-3,5-dimethylphenoxy)propyl)-1H-indole-2-carboxamide] it was 301 to 500 nM; in that of `Cc1cc(OCCCc2c3n(c4c(-c5c(C)nn(C)c5C)c(Cl)ccc24)CCN(Cc2ccc(C(=O)O)cc2)C3=O)cc(C)c1Cl` [I-140, 4-((7-chloro-10-(3-(4-chloro-3,5-dimethylphenoxy)propyl)-1-oxo-6-(1,3,5-trimethyl-1H-pyrazol-4-yl)-3,4-dihydropyrazino[1,2-a]indol-2(1H)-yl)methyl)benzoic acid], under 50 nM; in that of `Cc1cc(OCCCc2c(C(=O)N3CCc4ccc(C(=O)O)cc43)[nH]c3c(-c4c(C)nn(C)c4C)c(Cl)ccc23)cc(C)c1Cl` [I-192, 1-(6-chloro-3-(3-(4-chloro-3,5-dimethylphenoxy)propyl)-7-(1,3,5-trimethyl-1H-pyrazol-4-yl)-1H-indole-2-carbonyl)indoline-6-carboxylic acid], under 50 nM. The same measure, in the same setting: in the case of `Cc1cc(OCCCc2c(C(=O)NC3CCN(C(=O)CC(=O)O)CC3)[nH]c3c(-c4c(C)nn(C)c4C)cccc23)cc(C)c1Cl` [I-318, 3-(4-(3-(3-(4-chloro-3,5-dimethylphenoxy)propyl)-7-(1,3,5-trimethyl-1H-pyrazol-4-yl)-1H-indole-2-carboxamido)piperidin-1-yl)-3-oxopropanoic acid] it was under 50 nM; in that of `Cc1cc(OCCCc2c(C(=O)N3CCN(c4ccc(C(=O)O)cn4)CC3)[nH]c3c(-c4c(C)nn(C)c4C)c(Cl)ccc23)cc(C)c1Cl` [I-344, 6-(4-(6-chloro-3-(3-(4-chloro-3,5-dimethylphenoxy)propyl)-7-(1,3,5-trimethyl-1H-pyrazol-4-yl)-1H-indole-2-carbonyl)piperazin-1-yl)nicotinic acid], under 50 nM; in that of `Cc1cc(OCCCc2c3n(c4c(-c5c(C)nn(C)c5C)c(Cl)ccc24)CCCN(c2csc(C(=O)O)n2)C3=O)cc(C)c1Cl` [I-360, 4-(8-chloro-11-(3-(4-chloro-3,5-dimethylphenoxy)propyl)-1-oxo-7-(1,3,5-trimethyl-1H-pyrazol-4-yl)-4,5-dihydro-1H-[1,4]diazepino[1,2-a]indol-2(3H)-yl)thiazole-2-carboxylic acid], under 50 nM. Same read-out and setting: as for `Cc1cc(OCCCc2c3n(c4c(-c5c(C)nn(C)c5C)c(Cl)ccc24)C(C)[C@@H](C)NC3=O)cc(C)c1Cl` (stereo partly drawn) [I-119, (3R)-7-chloro-10-(3-(4-chloro-3,5-dimethylphenoxy)propyl)-3,4-dimethyl-6-(1,3,5-trimethyl-1H-pyrazol-4-yl)-3,4-dihydropyrazino[1,2-a]indol-1(2H)-one], the figure is 101 to 299 nM; as for `Cc1cc(OCCCc2c3n(c4c(-c5c(C)nn(C)c5C)c(Cl)ccc24)CCN(c2cc(C(=O)O)cc(N4CCOCC4)c2)C3=O)cc(C)c1Cl` [I-213, 3-(7-chloro-10-(3-(4-chloro-3,5-dimethylphenoxy)propyl)-1-oxo-6-(1,3,5-trimethyl-1H-pyrazol-4-yl)-3,4-dihydropyrazino[1,2-a]indol-2(1H)-yl)-5-morpholinobenzoic acid], under 50 nM.

The experiment is the same for the next values; noted with them: Table 2; Ki bins given in μM; FITC-Bak or FITC-Bim peptide competition; Ki converted from IC50; read-out: Ki for Inhibition of Mcl-1.
Regarding `Cc1cc(OCCCc2c(C(=O)NCc3ccc(N4CCc5ccccc5C4)nc3)[nH]c3c(-c4c(C)nn(C)c4C)cccc23)cc(C)c1Cl` [I-261, 3-(3-(4-chloro-3,5-dimethylphenoxy)propyl)-N-((6-(3,4-dihydroisoquinolin-2 (1H)-yl)pyridin-3-yl)methyl)-7-(1,3,5-trimethyl-1H-pyrazol-4-yl)-1H-indole-2-carboxamide], the Ki was in the range of 1000 to 9990 nM. Same read-out and setting: as for `CCOC(=O)c1ccc(CNC(=O)c2[nH]c3c(-c4c(C)n[nH]c4C)cccc3c2CCCOc2cc(C)c(Cl)c(C)c2)o1` [I-61, ethyl 5-((3-(3-(4-chloro-3,5-dimethylphenoxy)propyl)-7-(3,5-dimethyl-1H-pyrazol-4-yl)-1H-indole-2-carboxamido)methyl)furan-2-carboxylate], the figure is 10000 to 50000 nM; as for `Cc1cc(OCCCc2c(C(=O)N3CCN(c4ccc(C(=O)O)cc4)CC3)[nH]c3cc(Cl)ccc23)cc(C)c1Cl` [I-51, 4-(4-(6-chloro-3-(3-(4-chloro-3,5-dimethylphenoxy)propyl)-1H-indole-2-carbonyl)piperazin-1-yl)benzoic acid], 1000 to 9990 nM; as for `Cc1cc(OCCCc2c(C(=O)NCc3cc(C(=O)NC4Cc5ccccc5C4)cc(NC4Cc5ccccc5C4)n3)[nH]c3c(-c4c(C)nn(C)c4C)cccc23)cc(C)c1Cl` [I-278, 3-(3-(4-chloro-3,5-dimethylphenoxy)propyl)-N-((6-((2,3-dihydro-1H-inden-2-yl)amino)-4-((2,3-dihydro-1H-inden-2-yl)carbamoyl)pyridin-2-yl)methyl)-7-(1,3,5-trimethyl-1H-pyrazol-4-yl)-1H-indole-2-carboxamide], 1000 to 9990 nM.
